The record followed here is patent US9125352B2, “Method for maturing and synchronizing conifer somatic embryos” (SweTree Technologies AB, priority 2010, dated 2015).

One test concerns somatic embryo cultures. Kind of test: Embryo culture in medium with plasmolytic or near plasmolytic concentration of sugar alcohol (general findings). The format is cell-based. To be noted: plasmolytic or near plasmolytic concentration. From the text:
The invention is based on a serendipitous discovery. Gene transfer to spruce somatic embryos using a particle gun was experimented with, using a special medium originally designed for use with gene transfer for embryogenic cultures, containing 0.25, M myo-inositol. The resulting plasmolysis reduces damage during penetration by the gold particles, since it relaxes the tension in the cell membranes and minimizes tearing. By mistake, the somatic embryos were left in this medium for 12, days instead of returning them to the normal proliferation medium as intended. […] Consequently, the cells are first plasmolyzed and then gradually deplasmolyzed.

Test [1] deals with embryogenic cells, cell-line 06:28:05. Kind of test: Comparison of inositol with other sugar alcohols and with sucrose on solid DKM+ABA maturation medium (Example 3). The format is cell-based, Norway spruce. To be noted: three weeks. From the text:
The action of 0.25, M inositol in improving somatic embryo quality is likely to be partly osmotic, partly nutritional, with cell signaling effects also involved. The inventors tested whether 0.25, M inositol could be replaced with 0.25, M of other sugar alcohols (mannitol and sorbitol) or 0.25, M extra sucrose by spreading 1.0, to 1.5, g fresh weight of embryogenic cells, cell-line 06:28:05, on each of six plates of solid DKM+ABA maturation medium for continued growth and development over four weeks, with one subculture after 2, weeks. The cells were then subcultured onto three plates each (1.0-1.5, g cells per plate) of medium containing in addition either a) 0.25, M inositol, or b) 0.125, M mannitol and 0.125, M sorbitol, or c) 0.25, M sucrose. Control cells continued on standard medium. After three weeks, embryos of good quality were transferred to germination medium, ten embryos per petri dish, as a rough quantitative estimate of quality.

As to `OC[C@@H](O)[C@@H](O)[C@H](O)[C@H](O)CO` [mannitol], in the test with somatic embryo cultures, the “effect on maturation in the embryo cultures” value is reported as “induce synchronous maturation”.
On the same count and under the same terms, the value for `OC[C@@H](O)[C@@H](O)[C@H](O)[C@@H](O)CO` [sorbitol] was “induce synchronous maturation”.
Regarding `OC[C@H]1O[C@@](CO)(O[C@H]2O[C@H](CO)[C@@H](O)[C@H](O)[C@H]2O)[C@@H](O)[C@@H]1O` [sucrose, reference compound], the “effect on embryo quality” value in test [1] (0.25 M addition to DKM+ABA) is listed as “clearly detrimental effect”. Moreover, the “Plates with 10 high quality embryos” value in test [1] (addition to standard medium: 0.25 M (or 0.125 M + 0.125 M), three plates of 1.0-1.5 g cells per treatment) came out at 0.
